Test results as given in patent US11859087B2, “Fluorescent dye, preparation method therefor, and application thereof” (SUZHOU BAIYUAN GENT CO., LTD., priority 2018, dated 2024).
Counter-ions that a name gives are not always drawn.

Experiments:
[1] = Determination of the absorption spectrum of fluorescent dyes; type: physicochemical; details: 1.0×10^−5 mol/L in 50% by volume of ethanol
Description: The compounds prepared in Example 1 and Examples 4-6 were accurately weighed to prepare a solution having a concentration of 1.0×10^−5 mol/L using 50% by volume of ethanol. In FIG. 2, 1 represents the intermediate prepared in Example 1, and 2-4 represent the compound prepared in Examples 4-6, respectively.

[2] = Determination of the fluorescence spectrum of fluorescent dyes; type: physicochemical; details: for λem (max/nm): ethanol and water (50:50, v/v), 1.0×10^−6 mol/L, excitation at maximum absorption wavelength
Protocol: The fluorescence spectrum was measured using the maximum absorption wavelength in the measured near-infrared spectrum as the excitation wavelength of the fluorescence spectrum. The compounds prepared in Example 1 and Examples 4-6 were accurately weighed to prepare a solution of ethanol and water (50:50, v/v) at a concentration of 1.0×10^−6 mol/L. The emission spectrum of the solution was measured, and the result was shown in FIG. 1. In FIG. 1, 1 represents the intermediate prepared in Example 1, and 2-4 represent the compounds prepared in Examples 4-6, respectively.

[3] = Determination of molar extinction coefficient by UV-visible absorption spectroscopy; type: physicochemical; details: A=εcl
Protocol: The molar extinction coefficient of the compound was determined by UV-visible absorption spectroscopy. The formula for calculating molar extinction coefficient is as shown in equation (1): A=εcl Equation (1), wherein A represents ultraviolet absorption value, ε represents molar extinction coefficient, c represents concentration of the compound, and l represents thickness of the quartz cell for detection.

[4] = Determination of fluorescence quantum yield of fluorescent dyes; type: physicochemical; details: 20° C., absolute ethanol, quinine sulfate as reference
Protocol: The fluorescence quantum yield of the fluorescent dyes was determined at 20° C., and quinine sulfate (Solvent: 0.1M H2SO4, Quantum yield: 0.56) was used as a reference compound, then the fluorescence quantum yield was calculated by measuring fluorescence integral intensities obtained from the dilute solutions of the fluorescent dyes and the reference compound under the same excitation conditions and the ultraviolet absorption value at this excitation wavelength. The product was dissolved in absolute ethanol.
The formula for calculating fluorescence quantum yield is as shown in equation (2):
[formula] wherein Φ represents quantum yield of the compound to be measured, the subscript R represents reference compound, I represents fluorescence integral intensity, A represents ultraviolet absorption value, and η represents solvent refractive index. Generally, the ultraviolet absorption values A and AR are less than 0.1.

[5] = reference compound, solvent 0.1M H2SO4; cited from earlier work

λabs (max/nm) [1] [nm]	Stokes shift (nm) [2] [nm]	λem (max/nm) [2] [nm]	ε × 10^4 (M^−1 cm^−1) [3]	Φ (%) [4] [%]	Compound	Quantum yield [5]
785	38	815	8.5 × 10^4 M^−1 cm^−1	84.99	CC1(C)C(/C=C/C2=C(NCC(=O)O)C(=C/C=C3/N(/C=C/Br)c4ccccc4C3(C)C)/CCC2)=[N+](/C=C/Br)c2ccccc21 [Example 4]	
787	40	820	8.6 × 10^4 M^−1 cm^−1	86.00	CC1(C)C(/C=C/C2=C(NCO)C(=C/C=C3/N(/C=C/Br)c4ccccc4C3(C)C)/CCC2)=[N+](/C=C/Br)c2ccccc21 [Example 5]	
790	34	829	9.0 × 10^4 M^−1 cm^−1	89.86	CC1(C)C(/C=C/C2=C(NCc3cccc(C(=O)O)c3)C(=C/C=C3/N(/C=C/Br)c4ccccc4C3(C)C)/CCC2)=[N+](/C=C/Br)c2ccccc21 [Example 6]	
					C=C[C@H]1C[N@@]2CC[C@H]1C[C@H]2[C@H](O)c1ccnc2ccc(OC)cc12 [quinine sulfate]	0.56
